Measured values as given in the NIST ThermoML archive (doi:10.1021/acs.jced.7b00827).
Numbers after ± are expanded uncertainties. Blank lines part the entries; values can stand above or below the compound they belong to.

Experiments:
[1] = Liquid, Ebulliometric method (Recirculating still)
[2] = refractive index (Na D-line) (dimensionless); settings: 101.33 kPa, Standard Abbe refractometry

SMILES: Cc1cccc(C)c1O [2,6-dimethylphenol]
- vapor or sublimation pressure ([1]; 418.21 K): 20 ± 0.2 kPa
- Normal boiling temperature [1]: 201.20 ± 1 °C
- refractive index ([2]; 293.15 K, Metastable liquid): 1.5075 ± 0.0008
- refractive index ([2]; 298.15 K, Metastable liquid): 1.5053 ± 0.0008

SMILES: CCO [ethanol]
- vapor or sublimation pressure ([1]; 351.38 K): 101.3 ± 0.5 kPa

Other lines, results leading:

- vapor or sublimation pressure ([1]; 422.28 K): 20 ± 0.2 kPa
- Normal boiling temperature [1]: 202.20 ± 1 °C
- refractive index ([2]; 293.15 K, Liquid): 1.5396 ± 0.0008
- refractive index ([2]; 298.15 K, Liquid): 1.5374 ± 0.0008
SMILES: Cc1cccc(O)c1 [3-methylphenol]

- vapor or sublimation pressure ([1]; 468.25 K): 20 ± 0.2 kPa
- Normal boiling temperature [1]: 249.1 ± 1 °C
- refractive index ([2]; 294.15 K, Liquid): 1.4625 ± 0.0008
SMILES: CC(O)CNCC(C)O (stereo not drawn) [N-(2-hydroxypropyl)-2-hydroxy-1-propanamine]

- vapor or sublimation pressure ([1]; 373.05 K): 101.3 ± 0.5 kPa
SMILES: O [water]
